# From patent US5681738A, “Use of 10-oxo-trans-8-decenoic acid in mushroom cultivation” (The Penn State Research Foundation, priority 1992, dated 1997)
# Columns and labels:
# [1] = test system: separated upper stipes of Agaricus bisporus; experiment: Elongation of separated upper stipes on test agar containing ODA, storage at 12° C.; design: species or system Agaricus bisporus (hybrid off-white)
# Protocol: Four type strains of mushrooms were used: the white, off-white, hybrid white (U3) and hybrid off-white (U1). Mushrooms from each flush were harvested before the veil was broken. Freshly harvested mushrooms were transported within about one hour after harvest to Borland Laboratory and placed in the pilot plant cold room (4° C.) for about two hours before sampling. Mushrooms were sorted on the basis of size and appearance. Diseased, damaged, misshapen, veil-opened and extremely large or small mushrooms (>40 or <25 mm in cap diameter) were discarded. Mushrooms of uniform size (25-40 mm) and maturity of the button stage (stage 1, veil intact tightly) were used in this research.
# Whole stipes were cut at the lower portions to a length of 7-9 mm to standardize the sample, and marked at the middle of the veil, which is the location where the veil attaches to the stipe, to indicate the upper and lower stipes. The separated stipes contained 2-4 mm of upper stipes and 5-6 nun of lower stipes. For the study using separated upper stipes, mushrooms were dissected directly into upper stipes with a length of 3-5 mm. The separated stipes or upper stipes were put upside down on the test agar containing various mushroom supernatants or ODA concentrations; i.e., the upper sides in contact with the agar surface (FIG. 12). All petri dishes were covered and stored at 12° C. The length of separated stipes and upper stipes was measured using a vernier caliper before and after certain days of storage.
# Sterile ODA solutions were aseptically added into the autoclaved agar solutions to achieve the desired final ODA concentrations. The agar solution was then dispensed into dishes, ca 20.8 mL per dish. The level of ODA tested included 10^-4, 10^-5, 10^-6, 10^-7, and 10^-8 M. Mushrooms (hybrid off-white) from 6 different crops were used to study their postharvest growth. In the first 2 experiments, mushroom stipes were measured after 4-day storage at 12° C. In order to prevent stipe deterioration and desiccation of the test agar, in the following experiments mushroom stipes were measured after 3-day storage at 12° C.
# The experimental data were subjected to a single classification analysis of variance (AOV) for a completely randomized design (Steele et al., 1980). Fisher's protected least significant difference (LSD) was applied to separate the means. The level of significance used in this research was 0.05.
# Since the upper stipe was the major portion which responded to crude preparations of ODA, the following experiment used only upper stipes and applied pure ODA solns to the test agar. Because desiccation of the test agar sometimes occurred after 4 days of storage, in the third replication of this experiment and in subsequent experiments, the stipes were measured after 3 days of storage.
# [2] = test system: Agaricus bisporus mycelia; experiment: Dry matter of mycelia grown in potato dextrose yeast broth at 25° C.; format: cell-based, Agaricus bisporus (hybrid off-white); conditions: Week 5, control 15.6 b
# Protocol: The commercial mushroom spawn (hybrid off-white), Agaricus bisporus (Lange) Imbach, was obtained from Alpha Spawn Co., Avondale, Pa., and inoculated onto potato dextrose yeast (PDY) agar (Difco) and incubated at 25° C. A pure culture was obtained from the grain spawn grown on petri dishes and re-inoculated into PDY agar and maintained at 25° C. before use.
# The mushroom culture was grown on PDY agar or in PDY broth, both containing 0.5% yeast extract. The broth was dispensed into flasks prior to autoclaving, 50 mL. per flask, while 5 mL of sterile ODA solutions were aseptically added into flasks before inoculation.
# To prepare ODA solutions, about 18.4 mg (0.1 mmole) of 10-oxo-trans-8-decenoic acid prepared as described above were dissolved in i mL ethanol and diluted with deionized water to 100 mL to give a molar concentration of 10^-3 M, and then diluted in order to add 1.0 mL of the solutions to each flask to give the required final concentrations.
# Sterile ODA solutions were aseptically added into the autoclaved agar medium to achieve the desired final ODA concentrations, and then the medium was dispensed into petri dishes, ca 30 ml per dish. The levels of ODA tested included 2×10^-4, 10^-4, 10^-5, 10^-6 and 10^-7 M for both PDY agar and broth. These flasks and dishes were inoculated with 1 mm mycelial plugs from 4-week old cultures and incubated statically at 25° C. for 5 weeks. Each week, ca 300 μL of broth was aseptically taken from the flasks for laccase assay, while the colony diameter of every petri dish was measured using a vernier caliper to calculate the linear growth of the culture.
# After 5-weeks of incubation, the dry matter of mycelia was determined by vacuum filtering liquid cultures in PDY broth through weighed filter paper, and drying to constant weight at 70° C.
# Methods for the estimation of total fungal growth include the measurement of dry matter, linear growth, carbon dioxide evolution, chitin, ATP as well as extracellular laccase activity (Cochrane, (1958); Wood, (1979)). In this research the linear growth rate was used to examine the growth of mushroom mycelia on agar plates, while the extracellular laccase activity and dry matter were determined to estimate the growth of mycelia in liquid cultures. Extracellular laccases (p-diphenol: oxygen oxidoreductase, EC 1.10.3.2) produced by various classes of fungi are reported to be involved in biotransformation of lignin and lignosulfonate (Anders et al., (1976)), as well as in the breakdown of cellulose by cellulase (Westermark et al., (1974a); Westermark et al., (1974b); Haars et al., (1980)). Although the role of laccase in growth and development of Agaricus bisporus is not well defined, it has been observed that laccase production correlated with mycelial biomass of this fungus (Wood, (1979); Matcham et al., (1985); Claydon et al., (1988)).
smiles,measurement,setting,value
"O=C/C=C/CCCCCCC(=O)O [ODA, 10-oxo-trans-8-decenoic acid]",% Elongation of upper stipes,"[1]; ODA 10^-4 M (18.4 ppm), rep 1, 4-day storage, control 34.3",34.8%
same,% Elongation of upper stipes,"[1]; ODA 10^-4 M (18.4 ppm), rep 2, 4-day storage, control 33.3",40.1%
same,% Elongation of upper stipes,"[1]; ODA 10^-4 M (18.4 ppm), rep 3, 3-day storage, control 20.5",17.7%
same,% Elongation of upper stipes,"[1]; ODA 10^-5 M (1.84 ppm), rep 1, 4-day storage, control 34.3",35.5%
same,% Elongation of upper stipes,"[1]; ODA 10^-5 M (1.84 ppm), rep 2, 4-day storage, control 33.3",36.5%
same,% Elongation of upper stipes,"[1]; ODA 10^-5 M (1.84 ppm), rep 3, 3-day storage, control 20.5",19.3%
same,% Elongation of upper stipes,"[1]; ODA 10^-6 M (0.184 ppm), rep 1, 4-day storage, control 34.3",39.9%
same,% Elongation of upper stipes,"[1]; ODA 10^-6 M (0.184 ppm), rep 2, 4-day storage, control 33.3",35.7%
same,% Elongation of upper stipes,"[1]; ODA 10^-6 M (0.184 ppm), rep 3, 3-day storage, control 20.5",16.6%
same,% Elongation of upper stipes,"[1]; ODA 10^-7 M (0.0184 ppm), rep 1, 4-day storage, control 34.3",41.0%
same,% Elongation of upper stipes,"[1]; ODA 10^-7 M (0.0184 ppm), rep 2, 4-day storage, control 33.3",42.3%
same,% Elongation of upper stipes,"[1]; ODA 10^-7 M (0.0184 ppm), rep 3, 3-day storage, control 20.5",18.1%
same,% Elongation of upper stipes,"[1]; ODA 10^-8 M (0.00184 ppm), rep 1, 4-day storage, control 34.3",30.1%
same,% Elongation of upper stipes,"[1]; ODA 10^-8 M (0.00184 ppm), rep 2, 4-day storage, control 33.3",39.6%
same,% Elongation of upper stipes,"[1]; ODA 10^-8 M (0.00184 ppm), rep 3, 3-day storage, control 20.5",15.8%
same,elongation of upper stipes among treatments (in words),"[1]; pure ODA, upper stipes only",no differences
same,Dry matter,[2]; ODA 2 × 10^-4 M (36.8 ppm),16.7 mg
same,Dry matter,[2]; ODA 10^-4 M (18.4 ppm),23.2 mg
same,Dry matter,[2]; ODA 10^-5 M (1.84 ppm),48.5 mg
same,Dry matter,[2]; ODA 10^-6 M (0.184 ppm),44.1 mg
same,Dry matter,[2]; ODA 10^-7 M (0.0184 ppm),16.9 mg
